# Data reported in patent US9133104B2 (Chroma Therapeutics Ltd., priority 2005, dated 2015).
# Experiments:
# Hela cancer cell line = assay: Cell inhibition assay (SRB cell viability), Hela; type: cell-based; conditions: 72 h, Hela cells, IC50 range
# Method: (§1) The corresponding cancer cell lines (Hela, U937 and HUT) growing in log phase were harvested and seeded at 1000 cells/well (200 ul final volume) into 96-well tissue culture plates. Following 24 h of cell growth cells were treated with compounds (final concentration of 20 uM). Plates were then re-incubated for a further 72 h before a sulphorhodamine B (SRB) cell viability assay was conducted according to Skehan 1990 J Natl Canc Inst 82, 1107-1112.
# (§2) Data were expressed as a percentage inhibition of the control, measured in the absence of inhibitor, as follows:— % inhibition=100−((S^i/S^o)×100) where S^i is the signal in the presence of inhibitor and S^o is the signal in the presence of DMSO. IC50 values were determined by non-linear regression analysis, after fitting the results of eight data points to the equation for sigmoidal dose response with variable slope (% activity against log concentration of compound), using Graphpad Prism software. […] NT=Not tested
# U937 cancer cell line = assay: Cell inhibition assay (SRB cell viability), U937; type: cell-based; conditions: 72 h, IC50 range
# Method: as §1, §2
# HUT cancer cell line = assay: Cell inhibition assay (SRB cell viability), HUT; type: cell-based; conditions: HUT cells, 72 h, IC50 range
# Method: as §1, §2
# [1] = molecular target: T1, histone deacetylase activity (HeLa nuclear extract); assay: HDAC fluorescent activity assay (Biomol Fluor de Lys), HeLa nuclear extract; type: biochemical; conditions: Fluor de Lys substrate, IC50 range
# T1 construct: Histone deacetylase activity from crude nuclear extract derived from HeLa cells was used for screening
# Method: The ability of compounds to inhibit histone deacetylase activities was measured using the commercially available HDAC fluorescent activity assay from Biomol. In brief, the Fluor de Lys™ substrate, a lysine with an epsilon-amino acetylation, is incubated with the source of histone deacetylase activity (HeLa nuclear extract) in the presence or absence of inhibitor. Deacetylation of the substrate sensitises the substrate to Fluor de Lys™ developer, which generates a fluorophore. Thus, incubation of the substrate with a source of HDAC activity results in an increase in signal that is diminished in the presence of an HDAC inhibitor.
# Data are expressed as a percentage of the control, measured in the absence of inhibitor, with background signal being subtracted from all samples, as follows:— % activity=((S^i−B)/(S^o−B))×100 where S^i is the signal in the presence of substrate, enzyme and inhibitor, S^o is the signal in the presence of substrate, enzyme and the vehicle in which the inhibitor is dissolved, and B is the background signal measured in the absence of enzyme.
# IC50 values were determined by non-linear regression analysis, after fitting the results of eight data points to the equation for sigmoidal dose response with variable slope (% activity against log concentration of compound), using Graphpad Prism software.
# Histone deacetylase activity from crude nuclear extract derived from HeLa cells was used for screening. The preparation, purchased from 4C (Seneffe, Belgium), was prepared from HeLa cells harvested whilst in exponential growth phase. The nuclear extract is prepared according to Dignam JD1983 Nucl. Acid. Res. 11, 1475-1489, snap frozen in liquid nitrogen and stored at −80° C. The final buffer composition was 20 mM Hepes, 100 mM KCl, 0.2 mM EDTA, 0.5 mM DTT, 0.2 mM PMSF and 20% (v/v) glycerol.
# [2] = Homo sapiens, U-937, U937 cells
Structure (SMILES),"IC50 (Hela cancer cell line; Homo sapiens, HeLa) [nM]",IC50 (U937 cancer cell line; [2]) [nM],IC50 (HUT cancer cell line) [nM],IC50 [1] [nM],IC50 (Hela cancer cell line) [nM],IC50 (U937 cancer cell line; U937 cells) [nM]
"CC(C)C[C@H](NCC1CCC(CNCc2ccc3cc(C(=O)NO)sc3c2)CC1)C(=O)OC1CCCC1 (stereo partly drawn) [Compound 128, (S)-2-[(4-{[(2-Hydroxycarbamoyl-benzo[b]thiophen-6-ylmethyl)-amino]-methyl}-cyclohexylmethyl)-amino]-4-methyl-pentanoic acid cyclopentylester]",330 to 3300,< 330,< 330,101 to 1000,,
"CC(OC(C)(C)C)[C@H](NCc1ccc(CNCc2ccc3cc(C(=O)NO)sc3c2)cc1)C(=O)OC1CCCC1 (stereo partly drawn) [Compound 108, (S)-3-tert-Butoxy-2-(4-{[(2-hydroxycarbamoyl-benzo[b]thiophen-6-ylmethyl)-amino]-methyl}-benzylamino)-butyric acid cyclopentyl ester]",330 to 3300,330 to 3300,330 to 3300,101 to 1000,,
"O=C(CCCCCCC(=O)Nc1ccc(CN[C@H](C(=O)O)c2ccccc2)cc1)NO [Compound 21, (S)-[4-(7-Hydroxycarbamoyl-heptanoylamino)-benzylamino]-phenyl-acetic acid]",> 3300,> 3300,> 3300,101 to 1000,,
"O=C(CCCCCCC(=O)Nc1cccc(CN[C@H](C(=O)OC2CCCC2)c2ccccc2)c1)NO [Compound 36, (S)-[3-(7-Hydroxycarbamoyl-heptanoylamino)-benzylamino]-phenyl-acetic acid cyclopentyl ester]",330 to 3300,< 330,330 to 3300,< 100,,
"O=C(CCCCCCC(=O)N1CCc2c([nH]c3ccc(OCC(=O)N[C@H](C(=O)OC4CCCC4)c4ccccc4)cc23)C1)NO [Compound 24, (S)-{2-[2-(7-Hydroxycarbamoyl-heptanoyl)-2,3,4,9-tetrahydro-1H-beta-carbolin-6-yloxy]-acetylamino}-phenyl-acetic acid cyclopentyl ester]",> 3300,> 3300,330 to 3300,101 to 1000,,
"CCOC(=O)[C@@H](NC(=O)[C@@H]1Cc2ccccc2CN1C(=O)CCCCCCC(=O)NO)c1ccccc1 [Compound 46, (S)-{[(S)-2-(7-Hydroxycarbamoyl-heptanoyl)-1,2,3,4-tetrahydro-isoquinoline-3-carbonyl]-amino}-phenyl-acetic acid ethyl ester]",> 3300,330 to 3300,330 to 3300,> 1000,,
"O=C(CCCCCCC(=O)N1Cc2ccccc2C[C@H]1C(=O)N[C@H](C(=O)OC1CCCC1)c1ccccc1)NO [Compound 44, (S)-{[(S)-2-(7-Hydroxycarbamoyl-heptanoyl)-1,2,3,4-tetrahydro-isoquinoline-3-carbonyl]-amino}-phenyl-acetic acid cyclopentyl ester]",> 3300,330 to 3300,330 to 3300,101 to 1000,,
"O=C(CCCCCCC(=O)N1CCc2ccc(C(=O)N[C@H](C(=O)O)c3ccccc3)cc2C1)NO [Compound 16, (S)-{[2-(7-Hydroxycarbamoyl-heptanoyl)-1,2,3,4-tetrahydro-isoquinoline-7-carbonyl]-amino}-phenyl-acetic acid]",> 3300,> 3300,> 3300,> 1000,,
"O=C(CCCCCCC(=O)N1CCc2c([nH]c3ccccc23)C1CN[C@H](C(=O)O)c1ccccc1)NO (stereo partly drawn) [Compound 43, (S)-{[2-(7-Hydroxycarbamoyl-heptanoyl)-2,3,4,9-tetrahydro-1H-beta-carbolin-1-ylmethyl]-amino}-phenyl-acetic acid]",> 3300,> 3300,> 3300,101 to 1000,,
"COc1ccc2[nH]c3c(c2c1)CCN(C(=O)CCCCCCC(=O)NO)C3C(=O)N[C@H](C(=O)OC1CCCC1)c1ccccc1 (stereo partly drawn) [Compound 13, (S)-{[2-(7-Hydroxycarbamoyl-heptanoyl)-6-methoxy-2,3,4,9-tetrahydro-1H-beta-carboline-1-carbonyl]amino}-phenyl-acetic acid cyclopentyl ester]",,,330 to 3300,101 to 1000,> 3300,330 to 3300
"CCOC(=O)[C@H](Cc1ccccc1)NCc1cccc(NC(=O)CCCCCCC(=O)NO)c1 [Compound 26, (S)-2-[3-(7-Hydroxycarbamoyl-heptanoylamino)-benzylamino]-3-phenyl-propionic acid ethyl ester]",330 to 3300,330 to 3300,330 to 3300,< 100,,
"CC(OC(C)(C)C)[C@H](NCc1ccc(NC(=O)CCCCCCC(=O)NO)cc1)C(=O)OC1CCCC1 (stereo partly drawn) [Compound 88, (S)-3-tert-Butoxy-2-[4-(7-hydroxycarbamoyl-heptanoylamino)-benzylamino]-butyric acid cyclopentyl ester]",330 to 3300,< 330,330 to 3300,101 to 1000,,
"CC(C)C[C@H](NC(=O)[C@@H]1Cc2ccccc2CN1C(=O)CCCCCCC(=O)NO)C(=O)OC1CCCC1 [Compound 51, (S)-2-{[(S)-2-(7-Hydroxycarbamoyl-heptanoyl)-1,2,3,4-tetrahydro-isoquinoline-3-carbonyl]-amino}-4-methyl-pentanoic acid cyclopentyl ester]",> 3300,330 to 3300,330 to 3300,101 to 1000,,
"O=C(CCCCCCC(=O)Nc1ccc(CN[C@H](C(=O)OC2CCCC2)C2CCCCC2)cc1)NO [Compound 86, (S)-Cyclohexyl-[4-(7-hydroxycarbamoyl-heptanoylamino)-benzylamino]-acetic acid cyclopentyl ester]",> 3300,< 330,330 to 3300,101 to 1000,,
"O=C(CCCCCCC(=O)Nc1ccc(CN[C@@H](C(=O)OC2CCCC2)c2ccccc2)cc1)NO [Compound 83, (R)-[4-(7-Hydroxycarbamoyl-heptanoylamino)-benzylamino]-phenyl-acetic acid cyclopentyl ester]",330 to 3300,330 to 3300,330 to 3300,101 to 1000,,
"O=C(CCCCCCC(=O)N1Cc2[nH]c3ccccc3c2C[C@H]1C(=O)N[C@H](C(=O)O)c1ccccc1)NO [Compound 4, (S)-{[(S)-2-(7-Hydroxycarbamoyl-heptanoyl)-2,3,4,9-tetrahydro-1H-beta-carboline-3-carbonyl]-amino}-phenyl-acetic acid]",> 3300,> 3300,> 3300,101 to 1000,,
"O=C(CCCCCCC(=O)Nc1cccc(OCCCN[C@@H](Cc2ccccc2)C(=O)OC2CCCC2)c1)NO [Compound 75, (S)-2-{3-[3-(7-Hydroxycarbamoyl-heptanoylamino)-phenoxy]-propylamino}-3-phenyl-propionic acid cyclopentyl ester]",330 to 3300,< 330,< 330,< 100,,
O=C(CCCCCCC(=O)N1CCc2c([nH]c3ccc(OCC(=O)N[C@H](C(=O)O)c4ccccc4)cc23)C1)NO [Compound 25],> 3300,> 3300,> 3300,101 to 1000,,
"CCOC(=O)[C@H](Cc1ccccc1)NC(=O)[C@@H]1Cc2ccccc2CN1C(=O)CCCCCCC(=O)NO [Compound 47, (S)-2-{[(S)-2-(7-Hydroxycarbamoyl-heptanoyl)-1,2,3,4-tetrahydro-isoquinoline-3-carbonyl]-amino}-3-phenyl-propionic acid ethyl ester]",> 3300,330 to 3300,330 to 3300,101 to 1000,,
"O=C(CCCCCCC(=O)Nc1ccc(S(=O)(=O)N[C@H](C(=O)O)c2ccccc2)cc1)NO [Compound 23, (S)-[4-(7-Hydroxycarbamoyl-heptanoylamino)-benzenesulfonylamino]-phenyl-acetic acid]",> 3300,> 3300,> 3300,101 to 1000,,
"CC(C)(C)[C@H](NCc1ccc(CNCc2ccc3cc(C(=O)NO)sc3c2)cc1)C(=O)OC1CCCC1 [Compound 115, (S)-2-(4-{[(2-Hydroxycarbamoyl-benzo[b]thiophen-6-ylmethyl)-amino]-methyl}-benzylamino)-3,3-dimethyl-butyric acid cyclopentyl ester]",330 to 3300,330 to 3300,330 to 3300,101 to 1000,,
